Results published in patent US10408836B2 (priority 2013, dated 2019).

Tests used:
NanA of S. pneumoniae = assay type: biochemical; conditions: pH 7
NA of influenza = assay type: biochemical; conditions: pH 7
[1] = molecular target: B/Memphis/20/96 (Vict/96-R) neuraminidase (Influenza B virus, UniProt C7FPS7); conditions: pH 7, 25000 µM
[2] = molecular target: B/Brisbane/60/08 (Vict/06-S) neuraminidase (Influenza B virus, UniProt C0LT34); test: biochemical; conditions: pH 7, read-out: % of max NA act. + EDTA (pH)
[3] = molecular target: A/Florida/21/08 (H1N1/08-R) neuraminidase (Influenza A virus, UniProt G3LYR2); conditions: pH 6, 25000 µM
[4] = molecular target: Parainfluenza virus Type 2 NA (Human parainfluenza 2 virus, UniProt P25465); conditions: pH 5
[5] = molecular target: A/Texas/12/07 (H3N2/07-R) neuraminidase (Influenza A virus, UniProt D1FVK3)
[6] = molecular target: A/Brisbane/10/07-Like (H3N2/07-S) neuraminidase (Influenza A virus, UniProt A8W8R2); assay type: biochemical; conditions: pH 7, 25000 µM
[7] = molecular target: A/Brisbane/59/07-Like (H1N1/07-R) neuraminidase (Influenza A virus, UniProt D5F1R0); conditions: pH 6, 25000 µM
[8] = molecular target: Recombinant N1 protein A/California/04/09 (N1pdm/09-S) (Influenza A virus (H1N1), UniProt C3W5S3); test: biochemical; conditions: pH 6, read-out: % of max NA act. + EDTA (pH)
[9] = molecular target: S. pneumoniae ATCC 6305 (Strep 6) NanA (Streptococcus pneumoniae, UniProt P62575); conditions: pH 7
[10] = molecular target: A/North Carolina/39/09 (H1N1pdm/09-R) neuraminidase (Influenza A virus, UniProt C3W6G3); conditions: pH 6, 25000 µM
[11] = molecular target: A/California/07/09 (H1N1pdm/09-S) neuraminidase (Influenza A virus, UniProt C3W6G3); test: biochemical; conditions: pH 6, read-out: % of max NA act. + EDTA (pH)
[12] = molecular target: B/Florida/04/06 (Yama/08-S) neuraminidase (Influenza B virus, UniProt J7JZU5); test: biochemical; conditions: pH 7, read-out: % of max NA act. + EDTA (pH)
[13] = molecular target: Recombinant N1 protein A/Anhui/01/05 (N1/05-S) (Influenza A virus, UniProt D0PQ82); test: biochemical; conditions: pH 6, read-out: % of max NA act. + EDTA (pH)
[14] = molecular target: Recombinant N1 protein A/California/04/09 (N1pdm/09-R) (Influenza A virus (H1N1), UniProt C3W5S3); conditions: pH 6, 25000 µM
[15] = molecular target: S. pneumoniae ATCC 49619 (Strep 4) NanA (Streptococcus pneumoniae, UniProt P62575); conditions: pH 7
H3N2/07-R = assay type: binding, influenza A
influenza virus = assay type: binding

O=S(=O)(O)CCCNC1CCCCC1 [CAPS, N-cyclohexyl-3-aminopropanesulfonic acid]
NanA inhibition by sulfonic acid-containing buffer (NanA of S. pneumoniae): susceptibility to CHES and CAPS inhibition

O=S(=O)(O)CCNC1CCCCC1 [CHES, N-cyclohexyl-2-aminoethanesulfonic acid]
NA enzymatic activity of influenza in presence of buffer (NA of influenza): substantially resistant
NanA activity of S. pneumoniae in presence of buffer (NanA of S. pneumoniae): severely reduced
NanA inhibition by sulfonic acid-containing buffer (NanA of S. pneumoniae): susceptibility to CHES and CAPS inhibition

O=C(O)CN(CCN(CC(=O)O)CC(=O)O)CC(=O)O [EDTA, ethylenediaminetetraacetic acid]
% of max NA act. + EDTA (pH) [1]: 25%
activity at 25000 µM [2]: 92%
% of max NA act. + EDTA (pH) [3]: 36%
% of max NA act. + EDTA (pH) [4]: 27%
% of max NA act. + EDTA (pH) ([5]; pH 7, 25000 µM): 61%
% of max NA act. + EDTA (pH) [6]: 50%
% of max NA act. + EDTA (pH) [7]: 54%
activity at 25000 µM [8]: 94%
% of max NA act. + EDTA (pH) [9]: 112%
% of max NA act. + EDTA (pH) [10]: 63%
activity at 25000 µM [11]: 44%
activity at 25000 µM [12]: 88%
activity at 25000 µM [13]: 43%
% of max NA act. + EDTA (pH) [14]: 94%
% of max NA act. + EDTA (pH) [15]: 108%

CC(=O)N[C@H]1[C@H]([C@H](O)[C@H](O)CO)OC(C(=O)O)=C[C@@H]1N=C(N)N [Zan, Zanamivir]
IC50 [5]: 2.6 nM

MBL: mannose-binding lectin, recombinant host protein used as capturing agent
limit of detection: virus dilution (H3N2/07-R): 450 fold dilution
limit of detection: virus dilution at which virus is captured (influenza virus): 270-450 fold dilution
viral capture, ranking of receptors (influenza virus): best capturing factor among all mannose binding receptors

B1: Fetuin: highly sialylated protein isolated from bovine serum, used as capturing agent (protein, UniProt P12763 19-359, looked up)
Alpha-2-HS-glycoprotein: IPLDPVAGYKEPACDDPDTEQAALAAVDYINKHLPRGYKHTLNQIDSVKVWPRRPTGEVYDIEIDTLETTCHVLDPTPLANCSVRQQTQHAVEGDCDIHVLKQDGQFSVLFTKCDSSPDSAEDVRKLCPDCPLLAPLNDSRVVHAVEVALATFNAESNGSYLQLVEISRAQFVPLPVSVSVEFAVAATDCIAKEVVDPTKCNLLAEKQYGFCKGSVIQKALGGEDVRVTCTLFQTQPVIPQPQPDGAEAEAPSAVPDAAGPTPSAAGPPVASVVVGPSVVAVPLPLHRAHYDLRHTFSGVASVESSSGEAFHVGKTPIVGQPSIPGGPVRLCPGRIRYFKI
limit of detection: virus dilution (H3N2/07-R): 30 fold dilution
limit of detection: virus dilution at which virus is captured (influenza virus): 150-450 fold dilution
